“Also recorded” adds a separate entry of the source. Each block holds one molecule with its values, some of them ahead of it.
Tests used:
[1] = system: CV-1, MGC80-3, HEK293T and HCT116 cells; experiment: apoptosis determined by DAPI staining; format: cell-based; conditions: for effect on sulindac sulfide-induced apoptosis: RXRα ligands given with sulindac sulfide
Experimental: To determine the involvement of RXRα in sulindac sulfide-induced apoptosis of cancer cells, its effect on apoptosis of CV-1 cells (available from American Type Cell Culture, Manassas, Va., as accession number CCL-70) in the absence or presence of RXRα transfection was evaluated. FIG. 13a. RXR was cloned into a pGFP.C2 vector (GenBank Accession #: U19281) according to the procedure of Li et al., Science 289, 1159-1164 (2000). CV-1 cells were transfected with or without RXRα prior to treatment with sulindac sulfide (75.micro.M) for 24 hr. […] Louis, Mo., as catalogue number D9542), and the presence of nuclear fragmentation and/or chromatin condensation is an indicator of apoptosis. […] The requirement of RXRαwas also examined using RXRα siRNA SEQ ID No.: 12 approach. MGC80-3 cells, HEK293T (ATCC, accession number CCL-1573) and HCT116 (ATCC, accession number CCL-247) cell lines were transfected with RXRα siRNA or control siRNA using oligofectamine (from Invitrogen, Corp). Cell samples from each cell line were lysed and the cell extracts were prepared by immunoblotting to determine RXRα expression. Cells transfected with RXR.alpha siRNA or control siRNA were treated with sulindac sulfide (75.micro.M) for 24 hr, and apoptosis was determined by DAPI staining.

[2] = molecular target: T1, RXRα ligand-binding domain (Homo sapiens, UniProt P19793); experiment: competition binding assay with [3H]9-cis-RA and RXRα ligand-binding domain
T1 construct: made in house; host or cells: E. coli BL21 (pET vector, Novagen)
T1 sequence (P19793 224-462): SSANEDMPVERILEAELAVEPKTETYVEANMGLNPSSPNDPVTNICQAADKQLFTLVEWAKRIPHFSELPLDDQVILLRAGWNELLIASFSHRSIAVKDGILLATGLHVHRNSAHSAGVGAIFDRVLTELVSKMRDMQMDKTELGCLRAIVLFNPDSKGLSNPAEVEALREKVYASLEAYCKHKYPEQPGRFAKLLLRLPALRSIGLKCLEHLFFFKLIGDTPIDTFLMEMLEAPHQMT
Experimental: FIG. 8 is a dose response analysis illustrating that 15d-PGJ2 binds RXRα with high affinity conducted with 15d-PGJ2 in the competition binding assay. […] After separation of bound from free radioactivity by elution through Sephadex G-25 desalting columns. Bound radioactivity eluted was quantitated by liquid scientillation counting.
Therefore, Inventor investigated the possibility that 15d-PGJ2 bound directly to RXRα […] A dose response analysis (FIG. 8) was conducted with 15d-PGJ2 in the competition binding assay.
LBD expressed in E. coli. […] The reactions were then eluted through a Sephadex G-25 column to separate the bound label from free label and the RXRα LBD-bound label was quantitated by liquid scintillation counting.

TR3/RXRα heterodimer = molecular target: T2, TR3/RXRα heterodimer (Homo sapiens, UniProt P19793); experiment: gel shift assay (EMSA) of TR3/RXRα heterodimer binding to βRARE; format: biochemical
T2 construct: made in house; host or cells: in vitro translation
T2 sequence (P22736 whole entry partner, one chain of several): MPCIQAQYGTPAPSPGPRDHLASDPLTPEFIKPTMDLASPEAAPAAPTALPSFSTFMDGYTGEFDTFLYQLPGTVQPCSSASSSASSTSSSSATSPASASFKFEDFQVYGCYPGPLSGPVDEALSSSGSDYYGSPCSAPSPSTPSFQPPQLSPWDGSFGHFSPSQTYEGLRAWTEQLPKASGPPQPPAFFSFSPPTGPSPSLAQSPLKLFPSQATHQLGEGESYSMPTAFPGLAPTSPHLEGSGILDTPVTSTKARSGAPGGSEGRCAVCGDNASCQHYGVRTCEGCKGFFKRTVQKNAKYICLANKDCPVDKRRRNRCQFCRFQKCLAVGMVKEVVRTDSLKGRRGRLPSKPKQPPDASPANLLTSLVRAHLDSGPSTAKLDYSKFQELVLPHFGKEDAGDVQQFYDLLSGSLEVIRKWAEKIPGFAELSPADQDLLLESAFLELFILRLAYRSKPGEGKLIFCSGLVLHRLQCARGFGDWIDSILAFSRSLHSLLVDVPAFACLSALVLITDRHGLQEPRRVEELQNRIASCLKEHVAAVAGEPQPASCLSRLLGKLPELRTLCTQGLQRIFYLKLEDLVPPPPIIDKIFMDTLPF
Experimental: In vitro translated RXRα and TR3 were incubated with 15d-PGJ2 (10^-5 M) for 15 min in the absence or presence of anti-TR3 or anti-RXRα antibody. Following a further incubation with ^32P-radiolabelled βRARE, the reactions were analyzed by EMSA.
To study whether 15d-PGJ2 acted on the TR3/RXRα heterodimer to inhibit the heterodimer activity, Inventor investigated whether 15d-PGJ2 affected binding of the TR3/RXRα heterodimer to the beta.RARE by gel shift assay.
RXRα and TR3 proteins are incubated in the absence or presence of a test compound. Following incubation, the mixture is incubated with ^23P-labeled βretinoic acid response element (βRARE), and the binding of the RXRα/TR3 heterodimer is analyzed by the gel-shift assay. […] The enhancement of the heterodimer binding by a compound will indicate that the compound retains the RXRα/TR3 heterodimer in the nucleus and likely induces transcriptional activity of the heterodimer through its induction of RXRα/TR3 heterodimerization at their LBD dimerization interfaces.

RARβ expression = experiment: RARβ protein expression by Western analysis in cancer cells; format: cell-based
Experimental: The indicated cancer cells were treated for 24 h with or without trans-RA (10^-6 M), or 15d-PGJ2 (5.micro.M) or their combination. RARβ protein expression was determined by Western analysis.
The effect of sulindac sulfide on RXR transactivation was investigated for its effect of RARβ induction by all-trans-retinoic acid (tRA), which activates the RA response element (βRARE) in the RARβ promoter through an RAR/RXR heterodimer. […] The βRARE could be also activated by an RXR/PPAR heterodimer. […] Cells were treated for 24 hr with or without with trans-RA (10^-6 M), or SR11237 (10^-6 M), ciglitazone (10.micro.M), sulindac sulfide (100.micro.M) or the indicated combinations. RARβ protein expression was determined by Western analysis.

RXRα = molecular target: T3, RXRα (Homo sapiens, UniProt P19793); experiment: subcellular localization of RXRα by immunostaining / confocal microscopy; format: cell-based; conditions: for nuclear export of GFP fusion with amino acids 348-398 of RXRα: HEK293T cells; for GFP-RXRα association with mitochondria (overlay with Mito-RFP) / GFP-RXRα localization: COS-7 cells, 10^-4 M, 4 hours
T3 sequence (P19793 1-462): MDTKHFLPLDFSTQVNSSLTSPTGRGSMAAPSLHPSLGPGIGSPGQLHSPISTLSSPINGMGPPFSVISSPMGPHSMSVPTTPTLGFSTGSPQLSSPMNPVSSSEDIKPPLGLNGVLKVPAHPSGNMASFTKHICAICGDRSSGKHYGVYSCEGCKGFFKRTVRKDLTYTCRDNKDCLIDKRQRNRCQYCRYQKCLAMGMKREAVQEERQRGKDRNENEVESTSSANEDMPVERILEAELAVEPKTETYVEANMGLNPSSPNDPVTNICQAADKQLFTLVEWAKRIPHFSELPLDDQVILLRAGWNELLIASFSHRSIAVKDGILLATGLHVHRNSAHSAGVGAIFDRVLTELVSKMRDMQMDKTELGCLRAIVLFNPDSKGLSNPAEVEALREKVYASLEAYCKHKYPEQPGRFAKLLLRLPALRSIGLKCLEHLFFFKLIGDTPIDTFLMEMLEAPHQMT
Experimental: Expression vector for Flag-RXRα was transfected into the indicated cell line. Cells were then treated with 15d-PGJ2 (5.micro.M) for 3 hr, then immunostained with anti-Flag antibody to detect RXRα Flag-RXRα was visualized by confocal microscopy.
(§1) Expression vectors for Flag-RXRα and GFP-TR3 were transfected into PC12 cells alone or together. Cells were then treated with 15d-PGJ2 (5.micro.M) for 3 hr, then immunostained with anti-Flag antibody to detect RXRα Flag-RXRα and GFP-TR3 were visualized by confocal microscopy, and their images merged.
Cos7 cells were transfected with GFP-RXRα and Mito-REP, and treated with or without 10^-4 M indomethacin or diclofenac for 4 hours. The distribution of GFP-RXRα and Mito-REP was visualized by confocal microscopy.
For example, cells such as LNCaP prostate cancer cells are induced to apoptosis using agents such as the phorbol ester, TPA (12-0-tetradecanolphorbol 13-acetate, Cell Signaling Technology Cat. No.: 9905).
For example, heat shock protein 60 (Hsp60) is a mitochondrial specific protein. […] The treated cells are then incubated with a conjugated secondary antibody and visualized using confocal microscopy. In this example, Cy-3 or FITC conjugated secondary antibodies were used for visualizing the sub-cellular localization of RXRα or Hsp60, respectively.
A GFP-RXRα expression vector was transfected into COS-7 cells and GFP-RXRα was expressed.
A fusion protein created by combining GFP and amino acids 348-398 of RXRα, is transfected into HEK293T cells.
To determine the role of 15d-PGJ2 binding on the new RXR pathway, a confocal microscopy analysis was performed to determine subcellular localization of RXRα in the presence or absence of 15d-PGJ2.
(§2) Because RXR heterodimerizes with TR3, Inventor examined the effect of 15d-PGJ2 on TR3 subcellular localization in PC12 phaeochromocytoma cells.
To determine the mechanism of RXRα mediated apoptosis in the presence of sulindac sulfide, Inventors examined the effect of sulindac sulfide on subcellular localization of RXRα

TR3 = experiment: subcellular localization of TR3 and RXRα/TR3 heterodimer by confocal microscopy; format: cell-based
Experimental: as §1, with “FIG. 10 is a series of confocal microscope images of immunostained PC12 cells illustrating that binding of 15d-PGJ2 to RXRα induces translocation of RXRα homodimer/monomer or TR3/RXRα heterodimer from the nucleus to the cytoplasm. Expression” for “Expression”
In the absence of TPA, both TR3 and RXRα reside mainly in the nucleus. […] (FIG. 2).
as §2
Either TR3 alone, RXRα alone or TR3 and RXRα was transfected into HEK293T cells. Cells were then treated with sulindac sulfide (75.micro.M) for 6 hr. RXR.alpha and TR3 localization was determined by immunostaining, and cells were also stained by DAPI. […] Thus, the effect of sulindac sulfide on the cytoplasmic localization of TR3 depends on RXRα expression, probably due to their heterodimerization. Thus, sulindac sulfide induces nuclear export of RXRα and RXRα/TR3 heterodimer. (FIG. 14b).
The effect of sulindac sulfide on mitochondrial targeting of RXRα and TR3 was determined by treating H460 lung cancer cells with 75 micro.M sulindac sulfide for 6 hours and visualization of the cellular localization of these proteins by immunostaining. A two stage detection system was used having either anti-RXR or anti TR3 as a first stage (Santa Cruz Biotechnology and Abgent, respectively). In the absence of treatment, both RXRα and TR3 were found mainly in the nucleus.

RXRα/IKK interaction = molecular target: T4, RXRα/IKK interaction (Homo sapiens, UniProt P19793); experiment: co-immunoprecipitation assay of RXRα with IKK; format: cell-based; conditions: HEK293T cells, HA-IKKγ and Flag-RXRα; BI419 10^-6 M, 15d-PGJ2 5 μM, sulindac sulfide 75 μM, 6 hr
T4 construct: expressed in transfected cells; host or cells: HEK293T, pcDNA3 expression vectors
T4 sequence (Q9Y6K9 whole entry partner, one chain of several): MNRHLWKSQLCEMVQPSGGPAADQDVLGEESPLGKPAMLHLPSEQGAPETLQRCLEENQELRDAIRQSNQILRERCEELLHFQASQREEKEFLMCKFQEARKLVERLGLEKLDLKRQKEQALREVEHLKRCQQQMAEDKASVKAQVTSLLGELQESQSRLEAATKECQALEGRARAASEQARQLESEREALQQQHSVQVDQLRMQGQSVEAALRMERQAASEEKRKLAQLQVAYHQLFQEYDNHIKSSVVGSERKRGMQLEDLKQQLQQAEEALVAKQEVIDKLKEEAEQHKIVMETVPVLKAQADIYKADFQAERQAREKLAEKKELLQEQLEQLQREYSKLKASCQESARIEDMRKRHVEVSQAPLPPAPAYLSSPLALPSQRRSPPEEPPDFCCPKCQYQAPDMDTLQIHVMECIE
T4 sequence (O14920 whole entry partner, one chain of several): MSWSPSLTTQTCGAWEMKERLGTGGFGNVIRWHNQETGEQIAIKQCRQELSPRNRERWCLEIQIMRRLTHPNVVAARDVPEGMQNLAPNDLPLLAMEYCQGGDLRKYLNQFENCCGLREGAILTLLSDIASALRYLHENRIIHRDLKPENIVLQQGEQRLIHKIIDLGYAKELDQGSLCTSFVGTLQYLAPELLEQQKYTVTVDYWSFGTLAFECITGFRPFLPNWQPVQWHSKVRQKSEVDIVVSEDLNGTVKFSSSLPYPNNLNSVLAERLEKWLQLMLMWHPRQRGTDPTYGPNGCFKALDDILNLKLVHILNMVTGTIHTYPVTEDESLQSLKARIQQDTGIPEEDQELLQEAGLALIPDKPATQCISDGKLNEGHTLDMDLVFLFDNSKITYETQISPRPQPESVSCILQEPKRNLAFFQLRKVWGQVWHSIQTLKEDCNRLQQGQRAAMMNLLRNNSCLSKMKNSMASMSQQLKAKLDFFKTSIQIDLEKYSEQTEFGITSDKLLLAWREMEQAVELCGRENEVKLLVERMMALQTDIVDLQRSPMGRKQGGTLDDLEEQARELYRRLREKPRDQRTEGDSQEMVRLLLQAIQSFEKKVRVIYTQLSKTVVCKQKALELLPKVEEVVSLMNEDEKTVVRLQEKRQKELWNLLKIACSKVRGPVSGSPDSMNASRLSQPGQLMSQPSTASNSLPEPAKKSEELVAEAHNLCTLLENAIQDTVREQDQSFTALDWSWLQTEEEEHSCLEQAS
Excerpt: IKK is composed of three subunits: IKKα and IKKβ, the catalytic subunits, and IKKγ, a regulatory subunit. IKK activation is required for NF-kB activation through its phosphorylation and degradation of IkB in response to proinflammatory stimuli. In addition, IKK also regulates cellular processes in a NF-kB-independent manner. We examined whether sulindac sulfide-induced cytoplasmic RXRα could interact with IKK. The indicated expression vector (pcDNA3 from Invitrogen, Corp) was transfected into HEK293T cells alone or together. After transfection, cells were treated with sulindac sulfide (75.micro.M) for 6 hr, and the interaction of RXRα and IKKβ was analyzed by co-immunoprecipitation assay. […] (FIG. 17a). The interaction was also illustrated by their cytoplasmic co-localization in cells treated with sulindac sulfide. (FIG. 17b). […] In this example, H460 cells were treated with or without sulindac sulfide (75.micro.M) for 6 hr, and cells were stained for RXRα and IKKβ (FIG. 17c). […] HA-IKKγ and Flag-RXRα expression vectors were transfected into HEK293T cells alone or together. After transfection, cells were treated with a new retinoid (BI419 (10^-6 M), 15d-PGJ2 (5.micro.M), or sulindac sulfide (75.micro.M) for 6 hr. The interaction of RXRα and IKKγ was studied by co-immunoprecipitation assay.

Compound: CC1=C(/C=C/C(C)=C\C=C\C(C)=C\C(=O)O)C(C)(C)CCC1 [9-cis-RA]
effect on sulindac sulfide-induced apoptosis [1]: inhibitory effect

Compound: CC1(C)CCC(C)(C)c2cc(C3(c4ccc(C(=O)O)cc4)OCCO3)ccc21 [SR11237]
effect on sulindac sulfide-induced apoptosis [1]: inhibitory effect

Compound: CCCCCCCCCCCCCC(=O)O[C@@H]1[C@@H](C)[C@@]2(O)[C@@H](C=C(CO)C[C@]3(O)C(=O)C(C)=C[C@@H]23)[C@H]2C(C)(C)[C@]12OC(C)=O [TPA, 12-0-tetradecanolphorbol 13-acetate]
nuclear export of GFP fusion with amino acids 348-398 of RXRα (RXRα): causes the fusion protein to export from the nucleus | RXRα association with mitochondria (overlay with Hsp60) (RXRα; LNCaP cells treated with TPA): associates with mitochondria | RXRα localization (RXRα; LNCaP prostate cancer cells, endogenous RXRα, TPA treatment): found in the cytoplasm | TR3 and RXRα localization (TR3; LNCaP cells treated with TPA): co-localize to the cytoplasm

Compound: COc1ccc2c(c1)c(CC(=O)O)c(C)n2C(=O)c1ccc(Cl)cc1 [indomethacin]
GFP-RXRα association with mitochondria (overlay with Mito-RFP) (RXRα): associated with mitochondria | GFP-RXRα localization (RXRα): capable of inducing the migration; also recorded: found in the cytoplasm

Compound: CCC(=C/[C@H](C)C/C=C/C(C)=C/[C@@H](C)C(=O)[C@@H](C)[C@H](O)[C@@H](C)C/C(C)=C/C(=O)O)/C=C/[C@@H]1OC(=O)C=C[C@@H]1C [leptomycin-B]
nuclear export of GFP fusion with amino acids 348-398 of RXRα (RXRα): inhibited

The next lines start with results.

Ki ([2]; read-out: Ki, displacement of [3H]9-cis-RA binding to the RXR ligand-binding domain, 10 nM [3H]9-cis-RA, bacterially purified RXRα LBD): 1800 nM | binding of TR3/RXRα heterodimer to βRARE (TR3/RXRα heterodimer; 10^-5 M, 15 min, in vitro translated RXRα and TR3, EMSA): completely abolished | binding of RXRα/TR3 heterodimer to DNA (βRARE), as control in gel-shift screening (TR3/RXRα heterodimer; stated for positive/negative control, no concentration): abolishes the heterodimer binding | RXRα nuclear export (RXRα; no conditions given): induce RXRα nuclear export | interaction of RXRα with IKKγ (RXRα/IKK interaction): further promoted
Compound: CCCCC/C=C/C=C1/C(=O)C=C[C@@H]1C/C=C\CCCC(=O)O [15d-PGJ2, 15-Deoxy-.delta^12,14-prostaglandin J2]
induction of RARβ expression by trans-RA (RARβ expression; Calu-6 lung and ZR75-1 breast cancer cells, 15d-PGJ2 5 μM, trans-RA 10^-6 M, 24 h): potently inhibited | RARβ expression in combination with RXR ligands (RARβ expression; used together with RXR ligands): failed to induce | transfected Flag-RXRα localization (RXRα; H460 lung cancer or SY5Y neuroblastoma cells, 5 μM, 3 hr): significant amount of RXRα was found in the cytoplasm | Flag-RXRα localization (RXRα; PC12 cells, 5 μM, 3 hr): migrated from the nucleus to the cytoplasm | GFP-TR3 localization, cotransfected with Flag-RXRα (TR3; PC12 cells, 5 μM, 3 hr): found in the cytoplasm | GFP-TR3 migration to the cytoplasm, TR3 transfected alone (TR3; PC12 cells, 5 μM, 3 hr): did not

GFP-RXRα association with mitochondria (overlay with Mito-RFP) (RXRα): associated with mitochondria
Compound: O=C(O)Cc1ccccc1Nc1c(Cl)cccc1Cl [diclofenac]
GFP-RXRα localization (RXRα): capable of inducing the migration; also recorded: found in the cytoplasm

IC50 [2]: ~100 µM
Compound: CC1=C(CC(=O)O)c2cc(F)ccc2/C1=C\c1ccc([S+](C)[O-])cc1 (stereo not drawn) [sulindac]
apoptosis, cells without RXRα transfection ([1]; CV-1 cells, 75 μM, 24 hr, DAPI staining): little inducing effect

Source: US8105798B2, “Cytoplasmic activity of retinoid X receptor and its regulation by ligands and dimerization” (The Burnham Institute, priority 2003, dated 2012)
